Patent US11197859B2 (AUTIFONY THERAPEUTICS LIMITED, priority 2010, dated 2021)
“Also recorded” adds a separate entry of the source.

Experiments:
[1] = tested on: Male CD-1 mice; assay: Psychostimulant (amphetamine)-induced hyperactivity in mice; details: AMPH 2 mg/kg i.p. + clozapine 3 mg/kg i.p. 30 min before; over 60 min; mean ± sem; p<0.01 vs amphetamine alone
[2] = target: T1, human Kv3.2 channels (hKv3.2) (Homo sapiens, UniProt Q96PR1); assay: IonWorks Quattro electrophysiology, hKv3.2 currents, activation time constant (Tauact); format: cell-based; details: hKv3.2, -15 mV pulse; compound 0.2 μM (concentration giving ~0.3 nA current)
T1 construct: expressed in transfected cells
T1 sequence (Q96PR1 1-638): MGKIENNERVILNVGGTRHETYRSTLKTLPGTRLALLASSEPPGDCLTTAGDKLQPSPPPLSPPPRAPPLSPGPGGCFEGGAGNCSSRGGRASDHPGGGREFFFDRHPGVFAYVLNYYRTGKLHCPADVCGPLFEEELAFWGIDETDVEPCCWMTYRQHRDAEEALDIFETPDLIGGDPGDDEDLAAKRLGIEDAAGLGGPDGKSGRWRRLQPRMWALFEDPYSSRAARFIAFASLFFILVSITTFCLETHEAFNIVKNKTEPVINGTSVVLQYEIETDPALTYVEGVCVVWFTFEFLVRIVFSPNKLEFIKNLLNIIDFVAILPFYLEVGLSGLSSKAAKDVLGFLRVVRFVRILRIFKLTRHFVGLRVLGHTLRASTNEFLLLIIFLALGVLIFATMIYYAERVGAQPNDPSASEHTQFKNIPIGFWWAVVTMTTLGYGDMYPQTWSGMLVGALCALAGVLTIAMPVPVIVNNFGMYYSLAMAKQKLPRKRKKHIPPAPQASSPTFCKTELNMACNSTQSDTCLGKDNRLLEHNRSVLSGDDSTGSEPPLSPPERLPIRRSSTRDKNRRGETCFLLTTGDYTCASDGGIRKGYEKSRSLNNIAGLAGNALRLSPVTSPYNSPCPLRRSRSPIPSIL
Description: The ability of the compounds of the disclosure to modulate the voltage-gated potassium channel subtypes Kv3.2/3.1 may be determined using the following assay.
To assess compound effects on human Kv3.2 channels (hKv3.2), a stable cell line expressing hKv3.2 was created by transfecting Chinese Hamster Ovary (CHO)-K1 cells with a pCIH5-hKv3.2 vector. Cells were cultured in DMEM/F12 medium supplemented by 10% Foetal Bovine Serum, 1× non-essential amino acids (Invitrogen) and 500 ug/ml of Hygromycin-B (Invitrogen). Cells were grown and maintained at 37° C. in a humidified environment containing 5% CO2 in air.
The day of the experiment, cells were removed from the incubator and the culture medium removed. Cells were washed with 5 ml of Dulbecco's PBS (DPBS) calcium and magnesium free and detached by the addition of 3 ml Versene (Invitrogen, Italy) followed by a brief incubation at 37° C. for 5 minutes. The flask was tapped to dislodge cells and 10 ml of DPBS containing calcium and magnesium was added to prepare a cell suspension. The cell suspension was then placed into a 15 ml centrifuge tube and centrifuged for 2 min at 1200 rpm. After centrifugation, the supernatant was removed and the cell pellet re-suspended in 4 ml of DPBS containing calcium and magnesium using a 5 ml pipette to break up the pellet. Cell suspension volume was then corrected to give a cell concentration for the assay of approximately 3 million cells per ml.
Experiments were conducted at room temperature using IonWorks Quattro™ planar array electrophysiology technology (Molecular Devices Corp.) with PatchPlate™ PPC. Stimulation protocols and data acquisition were carried out using a microcomputer (Dell Pentium 4). Planar electrode hole resistances(Rp) were determined by applying a 10 mV voltage step across each well. These measurements were performed before cell addition. […] Following this, amphotericin-B solution was added to the intracellular face of the electrode to achieve intracellular access. Cells were held at −70 mV. Leak subtraction was conducted in all experiments by applying 50 ms hyperpolarizing (10 mV) prepulses to evoke leak currents followed by a 20 ms period at the holding potential before test pulses. From the holding potential of −70 mV, a first test pulse to −15 mV was applied for 100 ms and following a further 100 ms at −70 mV, a second pulse to 40 mV was applied for 50 ms. Cells were then maintained for a further 100 ms at −100 mV and then a voltage ramp from −100 mV to 40 mV was applied over 200 ms. In all experiments, the test pulses protocol was performed in the absence (pre-read) and presence (post-read) of the test compound. Pre- and post-reads were separated by the compound addition followed by a 3 minute incubation.
The intracellular solution contained the following (in mM): K-gluconate 100, KCl 54, MgCl2 3.2, HEPES 5, adjusted to pH 7.3 with KOH. Amphotericin-B solution was prepared as 50 mg/ml stock solution in DMSO and diluted to a final working concentration of 0.1 mg/ml in intracellular solution.
The final assay dilution was 200 and the final compound concentrations were in the range 50 μM to 50 nM.
The recordings were analysed and filtered using both seal resistance (>20 MΩ) and peak current amplitude (>500 pA at the voltage step of 40 mV) in the absence of compound to eliminate unsuitable cells from further analysis. Kv3 channel-mediated outward currents were measured determined from the mean amplitude of the current over the final 10 ms of the −15 mV voltage pulse minus the mean baseline current at −70 mV over a 10 ms period just prior to the −15 mV step. This Kv3 channel currents following addition of the test compound were then compared with the currents recorded prior to compound addition. […] The normalised data were analysed using ActivityBase or Excel software.

[3] = tested on: "fast-firing" interneurons in the somatosensory cortex; assay: Recordings from fast-firing interneurons, spike probability on trains of depolarising pulses; format: cell-based, mouse; details: 1 microM, n=6; trains at 100, 200, 300 Hz; effect at 300 Hz, p<0.05
Source text: Kv3.1 and Kv3.2 channels must activate and deactivate very rapidly in order to allow neurons to fire actions potentials at high frequency (Rudy and McBain, 2001, Trends in Neurosciences 24, 517-526). Slowing of activation is likely to delay the onset of action potential repolarisation; slowing of deactivation could lead to hyperpolarising currents that reduce the excitability of the neuron and delay the time before the neuron can fire a further action potential. Together these slowing effects on channel activation and deactivation are likely to lead to a reduction rather than a facilitation of the neurons ability to fire at high frequencies. Thus compounds that have this slowing effect on the Kv3.1 and/or Kv3.2 channels may slow neuronal firing.
The neurons are induced to fire at high frequencies by trains of high frequency depolarising current pulses at 100, 200, and 300 Hz. The ability of the neuron to fire an action potential on each pulse is determined. […] In the absence of drug (closed circles, n=9), the neurons maintained a spike probability of 1 up to 300 Hz.

[4] = tested on: parvalbumin-positive interneurons in the somatosensory cortex; assay: Firing of parvalbumin-positive interneurons in somatosensory cortex slices, in vitro; format: cell-based, mouse; details: 0.5 mM, vs control slices (0.1% DMSO)
[5] = tested on: MNTB neurons; assay: High-voltage activated potassium currents in MNTB neurons, in vitro; format: cell-based, mouse; details: 1 mM
Description: Male CBA/Ca mice (aged 12-16 days) were used in these experiments (in accordance with the UK Animals Scientific Procedures Act, 1986). Brain slices containing the medial nucleus of the trapezoid body (MNTB) were prepared as described previously (Brew and Forsythe, 2005).
Chemicals and reagents were purchased from Sigma, (Poole, UK) unless otherwise noted. Reference Example RE1 was dissolved in DMSO and diluted in ACSF to the required concentration.
Recordings from identified MNTB neurons were conducted as previously described (Brew and Forsythe, 2005). Slices was placed in a superfusion chamber on an inverted microscope stage and continuously perfused with gassed (95% O2-5% CO2) ACSF at a rate of 1 ml min-1 at room temperature. Whole-cell recordings were made from visually identified MNTB neurons using an […] amplifier (Molecular Devices, Union City, Calif., USA). Patch solution comprised (in mM) potassium gluconate (97.5), KCl (32.5), Hepes (40), EGTA (5), MgCl2 (1), Na2phosphocreatin (5), pH 7.2 with KOH. Pipettes had resistances of 3-5 MΩ and series resistances were 6-10 MΩ (compensated by 70%, 10 μs lag). Access resistance was frequently monitored and the recording discarded if increases were more than 2 MΩ. […]

[6] = tested on: Kv3 channels; details: cited from earlier work
[7] = tested on: Male CD rats; assay: Electroshock seizure model in rats; format: in vivo, rat; details: 300 mg/kg p.o., 1 hour before test; positive control
Description: Male CD rats (85-130 g) were supplied by Charles River, Italy.
Testing involved determining the threshold for tonic hindlimb extensor seizures using a Hugo Sachs Electronik stimulator which delivers a constant current of 0.3 second duration, 50 Hz, sinewave form, fully adjustable between 1 and 300 mA. Stimuli were delivered via corneal electrodes (Stean T O, Atkins A R, Heidbreder C A, Quinn L P, Trail B K, Upton N. (2005) Br J Pharmacol. 144(5):628-35). Seizure threshold was determined using the ‘up and down’ method of Kimball et al. (1957)(Kimball A W, Burnett W T Jr, Doherty D G. (1957) Radiat Res. 7(1):1-12). The first animal tested in each group was stimulated with a current that might be expected to be close to the threshold for induction of a seizure. If a tonic seizure was not induced, then the next animal in the group received a stimulus 5 mA higher. If a tonic seizure was induced, then the next animal received a stimulus 5 mA lower. This is repeated for all animals within the control (vehicle) group. In the case of groups treated with a test compound steps of 5 to 10 mA were used. At the end of the study, blood samples were taken for analysis of the drug concentrations in this compartment (n=4/group).
All doses were calculated as base. Sodium valproate was suspended in Methocell 1% (w/v) and dosed via the oral (p.o.) route at 5 mL/kg 1 hour before test. Reference Example RE1 was dissolved in DMSO and then suspended in Methocell 1% (w/v) to a final DMSO concentration of 5% (v/v). Reference Example RE1 was then dosed p.o. at 5 mL/kg 2 hours before test.
Induction of seizure is measured as an all-or-nothing effect scored as either present (+) or absent (0) for each animal. […] Drug effects were calculated as the % change in CC50. Significant differences between drug-treated animals and appropriate vehicle treated groups were assessed according to the methods of Litchfield and Wilcoxon (1949).

## CN1CCN(C2=Nc3cc(Cl)ccc3Nc3ccccc32)CC1 [Clozapine, reference compound]
[1]
  Total Distance Travelled (cm): 932 ± 362 cm

## CC[C@H]1NC(=O)N(c2ccc(Oc3cccc4c3C3(CC3)CO4)nc2)C1=O [Example 15, (5R)-5-ethyl-3-[6-(spiro[1-benzofuran-3,1′-cyclopropan]-4-yloxy)-3-pyridinyl]-2,4-imidazolidinedione]
[2]
  Tauact mean: 50.1 ms
[3]
  ability of neurons to fire (spike probability) on trains of depolarising pulses: reduces the ability of the neurons to fire; also recorded: unable to follow trains at the highest frequency

## CC[N+](CC)(CC)CC [TEA, Tetraethylammonium, reference compound]
[4]
  action potential half-width: significantly increased
  maximal frequency of action potential firing in response to step currents: fired at a lower maximal frequency
[5]
  amplitude of outward high voltage-activated potassium currents evoked by voltage steps to +40 mV: significantly reduced
[6]
  inhibition of Kv3 channels: inhibit the channels at low millimolar concentrations

## CCCC(CCC)C(=O)[O-].[Na+] [sodium valproate, Sodium valproate, reference compound]
[7]
  increase in seizure threshold (% change in CC50): 258%
